# Results taken from PubChem BioAssay (NCI).
#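 GI50 marks 50% less growth. The concentration for full growth arrest is given as TGI.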
# What was measured:
# Test in all cases: NCI tumour cell line growth inhibition, 384-well format
# [1] = test system: NCI-H522 lung
# [2] = test system: A498 renal
# [3] = test system: UACC-257 melanoma
# [4] = test system: CCRF-CEM leukemia
# [5] = test system: HCC-2998 colon
# [6] = test system: SK-MEL-5 melanoma
# [7] = test system: BT-549 breast
# [8] = test system: ACHN renal
# [9] = test system: CAKI-1 renal
# [10] = test system: KM12 colon
# [11] = test system: MCF7 breast
# [12] = test system: HL-60(TB) leukemia
# [13] = test system: K-562 leukemia
# [14] = test system: LOX IMVI melanoma
# [15] = test system: HCT-15 colon
# [16] = test system: SW-620 colon
# [17] = test system: NCI/ADR-RES ovarian
# [18] = test system: U251 glioblastoma
# [19] = test system: HOP-92 NSCLC
# [20] = test system: OVCAR-4 ovarian
# [21] = test system: OVCAR-3 ovarian
# [22] = test system: MDA-MB-468 breast
# [23] = test system: MOLT-4 leukemia
# [24] = test system: SK-OV-3 ovarian
# [25] = test system: SNB-75 CNS
# [26] = test system: TK-10 renal
# [27] = test system: A549 NSCLC
# [28] = test system: HOP-62 NSCLC
# [29] = test system: COLO 205 colon
# [30] = test system: NCI-H460 NSCLC
# [31] = test system: NCI-H23 lung
# [32] = test system: IGROV1 ovarian
# [33] = test system: T-47D breast
# [34] = test system: 786-0 renal
# [35] = test system: SF-295 CNS
# [36] = test system: HCT-116 colon
# [37] = test system: NCI-H322M lung
# [38] = test system: OVCAR-8 ovarian
# [39] = test system: HS 578T breast
# [40] = test system: M14 melanoma
# [41] = test system: MALME-3M melanoma
# [42] = test system: PC-3 prostate
# [43] = test system: NCI-H226 lung
# [44] = test system: SF-539 CNS
# [45] = test system: SK-MEL-28 melanoma
# [46] = test system: SN12C renal
# [47] = test system: HT29 colon
# [48] = test system: UACC-62 melanoma
# [49] = test system: RPMI-8226 leukemia
# [50] = test system: RXF 393 renal
# [51] = test system: MDA-MB-435 melanoma
# [52] = test system: OVCAR-5 ovarian
# [53] = test system: DU-145 prostate
# [54] = test system: SNB-19 CNS
# [55] = test system: EKVX NSCLC
# [56] = test system: MDA-MB-231 breast
# [57] = test system: SF-268 CNS
# [58] = test system: UO-31 renal
structure (smiles),measurement,setting,value
C[C@H](c1ccc(F)cc1CCCC(=O)O)N(c1cc(F)ccc1F)S(=O)(=O)c1ccc(Cl)cc1,GI50,[1],27.9 µM
same,TGI,[1],76.3 µM
same,GI50,[2],20.2 µM
same,TGI,[2],69.3 µM
same,GI50,[3],13.6 µM
same,TGI,[3],68.4 µM
same,GI50,[4],12.3 µM
same,TGI,[4],26.5 µM
same,GI50,[5],1.41 µM
same,TGI,[5],16.3 µM
same,GI50,[6],13.1 µM
same,TGI,[6],29.7 µM
same,GI50,[7],18.8 µM
same,TGI,[7],42 µM
same,GI50,[8],30.4 µM
same,TGI,[8],> 100 µM
same,GI50,[9],45.9 µM
same,TGI,[9],> 100 µM
same,GI50,[10],28.7 µM
same,TGI,[10],> 100 µM
same,GI50,[11],22.7 µM
same,TGI,[11],88.9 µM
same,GI50,[12],19.1 µM
same,TGI,[12],33.6 µM
same,GI50,[13],27.1 µM
same,TGI,[13],> 100 µM
same,GI50,[14],19 µM
same,TGI,[14],45.6 µM
same,GI50,[15],22.4 µM
same,TGI,[15],95.5 µM
same,GI50,[16],32.8 µM
same,TGI,[16],> 100 µM
same,GI50,[17],32 µM
same,TGI,[17],> 100 µM
same,GI50,[18],19.9 µM
same,TGI,[18],49.4 µM
same,GI50,[19],13.5 µM
same,TGI,[19],44.6 µM
same,GI50,[20],26 µM
same,TGI,[20],> 100 µM
same,GI50,[21],17.9 µM
same,TGI,[21],38 µM
same,GI50,[22],5.35 µM
same,TGI,[22],30.3 µM
same,GI50,[23],11.7 µM
same,TGI,[23],24.2 µM
same,GI50,[24],32.8 µM
same,TGI,[24],> 100 µM
same,GI50,[25],26.2 µM
same,TGI,[25],> 100 µM
same,GI50,[26],31.1 µM
same,TGI,[26],> 100 µM
same,GI50,[27],16.1 µM
same,TGI,[27],46.2 µM
same,GI50,[28],16.4 µM
same,TGI,[28],37.1 µM
same,GI50,[29],30.1 µM
same,TGI,[29],> 100 µM
same,GI50,[30],17.2 µM
same,TGI,[30],33.8 µM
same,GI50,[31],14.9 µM
same,TGI,[31],41.6 µM
same,GI50,[32],30.5 µM
same,TGI,[32],> 100 µM
same,GI50,[33],2.26 µM
same,TGI,[33],26.6 µM
same,GI50,[34],28.9 µM
same,TGI,[34],> 100 µM
same,GI50,[35],17.7 µM
same,TGI,[35],49.7 µM
same,GI50,[36],20.2 µM
same,TGI,[36],43.8 µM
same,GI50,[37],25.6 µM
same,TGI,[37],> 100 µM
same,GI50,[38],32.1 µM
same,TGI,[38],> 100 µM
same,GI50,[39],12.2 µM
same,TGI,[39],33.3 µM
same,GI50,[40],21.4 µM
same,TGI,[40],70.5 µM
same,GI50,[41],23.7 µM
same,TGI,[41],> 100 µM
same,GI50,[42],22.7 µM
same,TGI,[42],66.8 µM
same,GI50,[43],25.2 µM
same,TGI,[43],76 µM
same,GI50,[44],23.8 µM
same,TGI,[44],66.2 µM
same,GI50,[45],46 µM
same,TGI,[45],> 100 µM
same,GI50,[46],28.8 µM
same,TGI,[46],> 100 µM
same,GI50,[47],31.3 µM
same,TGI,[47],> 100 µM
same,GI50,[48],16.9 µM
same,TGI,[48],40.4 µM
same,GI50,[49],19.4 µM
same,TGI,[49],36.6 µM
same,GI50,[50],27.9 µM
same,TGI,[50],> 100 µM
same,GI50,[51],24 µM
same,TGI,[51],53.8 µM
same,GI50,[52],38.5 µM
same,TGI,[52],> 100 µM
same,GI50,[53],28.2 µM
same,TGI,[53],> 100 µM
same,GI50,[54],35.9 µM
same,TGI,[54],> 100 µM
same,GI50,[55],21.6 µM
same,TGI,[55],63.1 µM
same,GI50,[56],34 µM
same,TGI,[56],> 100 µM
same,GI50,[57],14 µM
same,TGI,[57],34.2 µM
same,GI50,[58],15.7 µM
same,TGI,[58],33 µM
O=C(CCBr)N1CCN(C(=O)CCBr)CC1,GI50,[1],32.7 µM
same,GI50,[2],70.1 µM
same,GI50,[4],11.4 µM
same,TGI,[4],24.2 µM
same,GI50,[7],40 µM
same,GI50,[8],24.6 µM
same,TGI,[8],87.4 µM
same,GI50,[9],33.3 µM
same,GI50,[10],88.1 µM
same,GI50,[11],30.9 µM
same,GI50,[12],2.06 µM
same,TGI,[12],5.92 µM
same,GI50,[14],39.9 µM
same,GI50,[15],40.8 µM
same,GI50,[16],87.6 µM
same,GI50,[17],52.2 µM
same,GI50,[18],24 µM
same,GI50,[21],41.5 µM
same,GI50,[22],9.42 µM
same,TGI,[22],49 µM
same,GI50,[23],1.61 µM
same,TGI,[23],3 µM
same,GI50,[24],45.2 µM
same,GI50,[25],20.9 µM
same,GI50,[27],57.6 µM
same,GI50,[28],13.6 µM
same,TGI,[28],42.3 µM
same,GI50,[31],34.7 µM
same,GI50,[34],33.1 µM
same,GI50,[35],21.8 µM
same,TGI,[35],64.9 µM
same,GI50,[36],26.5 µM
same,GI50,[38],37.2 µM
same,GI50,[39],22.5 µM
same,GI50,[40],25.8 µM
same,GI50,[41],98.8 µM
same,GI50,[42],82 µM
same,GI50,[43],56.3 µM
same,GI50,[44],24 µM
same,TGI,[44],99 µM
same,GI50,[46],18.3 µM
same,GI50,[47],91.5 µM
same,GI50,[48],15.1 µM
same,GI50,[49],17 µM
same,GI50,[50],44.4 µM
same,GI50,[53],21.6 µM
same,GI50,[54],63 µM
same,GI50,[57],13.7 µM
same,GI50,[58],74.1 µM
